Laboratory results as given in paper PMC3684613 (PLoS ONE, 2013).
Like-named read-outs stand apart in the source and are kept apart here.

Assays:
[1] = test system: P. falciparum 3D7; design: method as in ChEMBL-NTD; conditions: ref ChEMBL-NTD, cited from earlier work
[2] = test system: P. falciparum 3D7; assay: DAPI stain fluorescent high content imaging assay, P. falciparum 3D7 (confirmatory screen, Avery); conditions: Plasmodium falciparum; for inhibition of growth at 5 µM: 3D7, read-out: percent_inh @ 5 uM; for EC50: 3D7, read-out: EC50_nM
[3] = values follow the order of the source (GNF; GSK; StJude)

| Compound | inhibition of growth at 5 µM [2] [%] | EC50 [1, 3] [µM] | EC50 [2] [µM] | further results |
| --- | --- | --- | --- | --- |
| COc1ccc2nc(N)nc(C)c2c1 [MMV665897] | 63 |  |  | EC50 ([1]; source GSK (TCMDC ids)): 0.927 µM |
| COc1ccc(C(=O)Nc2ccc3nc(N4CCCCC4)cc(C)c3c2)cc1OC [MMV019758] | 76 |  |  | EC50 ([1]; source GSK): 0.994 µM |
| CCOc1ccc2nc(C)cc(Nc3ccc(Br)cc3)c2c1 [MMV006522] |  | 0.114 | 0.48 | inhibition of growth at 2 µM ([2]; 3D7, read-out: percent_inh @ 2 uM): 96% |
| Oc1ccc(Br)cc1CN1CCN(Cc2ccc(Cl)cc2)CC1 [MMV665809] | 97 | 1.48 |  |  |
| CC(C)(C)c1ccc(O)c(CNC2CCCCC2)c1 [MMV665785] | 96 |  | 0.161 | EC50 ([1]; source GNF (GNF-Pf id)): 0.251 µM; EC50 ([1]; source GSK (TCMDC id)): 0.264 µM |
| COc1cccc(NC(=O)[C@H](C(C)C)n2c(=O)[nH]c3ccccc3c2=O)c1 [MMV665878] | 99 |  | 0.139 | EC50 ([1]; source GSK (TCMDC id)): 0.266 µM |
| Oc1ccc(C(=C(Cl)Cl)c2ccc(O)cc2)cc1 [MMV665949] | 95 |  |  | EC50 ([1]; source StJude (SJ ids)): 2.47 µM |
| O=C1c2ccc3c4c(ccc(c24)C(=O)N1CCCCO)C(=O)N(CCCCO)C3=O [MMV009085] | 97 | 0.354 | 0.795 |  |
| COc1ccc(C(=O)C(CCC(CNC(C)(C)C)C(=O)c2ccc(OC)cc2)CNC(C)(C)C)cc1 (centres unmarked) [MMV007591] | 85 | 1.12 |  |  |
| Nc1ccc(-c2nc3cc(Cc4ccc5[nH]c(-c6ccc(N)cc6)nc5c4)ccc3[nH]2)cc1 [MMV665943] | 100 |  | 1.42 | EC50 ([1]; source GNF (GNF-Pf ids)): 0.243 µM; EC50 ([1]; source GSK (TCMDC ids)): 0.512 µM; EC50 ([1]; source StJude (SJ ids)): 1.08 µM |
| Cc1ccccc1OCCSc1nc2ccc(NC(=O)c3cccs3)cc2s1 [MMV007396] | 96 |  | 0.697 | EC50 ([1]; source GNF (GNF-Pf ids)): 0.497 µM |
| COc1cccc(C=Cc2nc(=O)c3ccccc3o2)c1OC [MMV666693] | 96 |  | 0.0238 | EC50 ([1]; source GSK (TCMDC id)): 0.0644 µM |
| CCOC(=O)c1cnc2c(C)cccc2c1Nc1ccc(C(C)=O)cc1 [MMV006250] | 94 |  | 0.314 | EC50 ([1]; source GNF (GNF-Pf ids)): 0.119 µM |
| CCOc1c(Cl)cc(CNC(C)C(O)c2ccccc2)cc1OC (centres unmarked) [MMV665857] | 98 |  |  | EC50 ([1]; source GNF): 1.65 µM |
| O=C(NC1CCN(Cc2ccccc2)CC1)c1cc(C(=O)NC2CCN(Cc3ccccc3)CC2)cc(C(=O)NC2CCN(Cc3ccccc3)CC2)c1 [MMV019881] | 98 | 1.04 | 0.646 |  |
| c1ccc(C2=Nc3ccccc3N=C(c3ccccc3)c3ccccc32)cc1 [MMV007113] | 99 | 0.678 | 0.661 |  |
| COc1ccccc1CNC(=O)C1c2ccccc2C(=O)N(CC(C)C)C1c1cccs1 (centres unmarked) [MMV000648] | 97 |  |  | EC50 ([1]; source StJude): 3.16 µM |
| COc1ccc(C(O)(CCC(C)C)C(CN2CCOCC2)c2ccc(Cl)cc2)cc1 (centres unmarked) [MMV000617] | 97 |  |  | EC50 ([1]; source StJude (SJ ids)): 4.61 µM |
| COc1ccc(OC)c(C2C3=C(CC(C)(C)CC3=O)N(c3ccc(Cl)c(Cl)c3)C3=C2C(=O)CC(C)(C)C3)c1 [MMV007208] | 90 |  | 0.912 | EC50 ([1]; source GNF (GNF-Pf ids)): 0.43 µM |
| COc1ccc(CN2CCCC(C(=O)c3ccc(C(F)(F)F)cc3)C2)c(O)c1 (centres unmarked) [MMV666060] | 97 |  |  | EC50 ([1]; source GSK (TCMDC ids)): 0.849 µM |
| O=C(CCl)NCCOc1ccc(Cl)cc1Cl [MMV665927] | 94 | 0.538 | 0.555 |  |
| Fc1ccc2[nH]c3c(NCCCN4CCOCC4)ncnc3c2c1 [MMV019871] | 98 |  | 0.345 | EC50 ([1]; source GSK (TCMDC id)): 0.714 µM |
| CCOc1ccc(CN2CCN(CC(O)COc3ccc(OCC(O)CN4CCN(Cc5ccc(OCC)cc5)CC4)cc3)CC2)cc1 (centres unmarked) [MMV007092] | 97 | 1.37 | 1.2 |  |
| CCN1CCN(c2cc(C)c3cc(NC(=O)c4ccc(OC)c(OC)c4)ccc3n2)CC1 [MMV019074] | 99 |  |  | EC50 ([1]; source GSK): 1.03 µM |
| CCOC(=O)c1cnc2c(C)cc(C)cc2c1Nc1ccc(OC)c(OC)c1 [MMV008294] | 96 |  | 0.232 | EC50 ([1]; source GNF (GNF-Pf id)): 1.78 µM |
| COc1ccc(-c2cn3c(C(=O)Nc4ccccc4Cl)c(-c4ccccc4)c4c3n2CCCC4)cc1 [MMV020403] | 80 | 0.792 |  |  |
| OC(CNC1CCCCC1)Cn1c2ccccc2c2ccccc21 (centres unmarked) [MMV009063] | 93 |  | 0.293 | EC50 ([1]; source GNF (GNF-Pf id)): 0.483 µM; EC50 ([1]; source GSK (TCMDC id)): 0.991 µM |
| O=C(NC1CCCCC1)C(c1cccs1)N(CCc1ccccc1)C(=O)c1ccco1 (centres unmarked) [MMV666106] | 90 |  | 1.07 | EC50 ([1]; source GSK (TCMDC ids)): 1.04 µM |
